Like-named read-outs stand apart in the source and are kept apart here.
Tested on: Huh-7 cells containing the self-replicating, subgenomic HCV replicon
Experiment: HCV replicon assay (luciferase reporter, 72 h)
Format: cell-based
Conditions: Hepatitis C virus, read-out: HCV Replicon Activity (EC50)
Protocol: Huh-7 cells containing the self-replicating, subgenomic HCV replicon with a stable luciferase (LUC) reporter were cultured in Dulbecco's modified Eagle's medium (DMEM) containing 2 mM L-glutamine and supplemented with 10% heat-inactivated fetal bovine serum (FBS), 1% penicillin-streptomyocin, 1% nonessential amino acids, and 0.5 mg/ml G418.
On the first day, 5,000 HCV replicon cells were plated per well in a 96-well plate. On the following day, test compounds were solubilized in 100% DMSO to 100× the desired final testing concentration. Each compound was then serially diluted (1:3) up to 9 different concentrations. Compounds in 100% DMSO are reduced to 10% DMSO by diluting 1:10 in cell culture media. The compounds were diluted to 10% DMSO with cell culture media, which were used to dose the HCV replicon cells in 96-well format. The final DMSO concentration was 1%. The HCV replicon cells were incubated at 37° C. for 72 hours. At 72 hours, cells were processed when the cells are still subconfluent. Compounds that reduce the LUC signal are determined by Bright-Glo Luciferase Assay (Promega, Madison, Wis.). % Inhibition was determined for each compound concentration in relation to the control cells (untreated HCV replicon) to calculate the EC50.

[1] = Table 9, Huh-7 HCV replicon cells, luciferase, 72 hours

Row | Structure (SMILES) | EC50 (Huh-7, 72 h) | EC50 [1]
1 | COC(=O)[C@H](C)NP(=O)(Oc1ccccc1)O[C@H](C)[C@H]1O[C@@H](n2cnc3c(N)ncnc32)[C@H](O)[C@@H]1O (stereo partly drawn) | < 30 µM | 
2 | COC(=O)[C@H](C)NP(=O)(Oc1ccccc1)O[C@@H](C)[C@H]1O[C@@H](n2cnc3c(N)ncnc32)[C@](C)(O)[C@@H]1O (stereo partly drawn) | < 1000 µM | 
3 | CCOC(=O)[C@H](C)NP(=O)(Oc1ccccc1)O[C@@H](C)[C@H]1O[C@@H](n2cnc3c(N)ncnc32)[C@H](O)[C@@H]1O (stereo partly drawn) | < 30 µM | 
4 | CC(O)[C@H]1O[C@@H](n2ccc(N)nc2=O)[C@@H](F)[C@@H]1O (stereo partly drawn) |  | 5 to 30 µM
5 | C[C@@H](O)[C@H]1O[C@@H](n2ccc(N)nc2=O)C(F)(F)[C@@H]1O |  | < 5 µM
6 | C[C@@H](O)[C@H]1O[C@@H](n2cnc3c(N)ncnc32)[C@](C)(O)[C@@H]1O |  | 5 to 30 µM
7 | C[C@H](O)[C@H]1O[C@@H](n2ccc(N)nc2=O)[C@@H](O)[C@@H]1O |  | 30 to 200 µM
8 | CC(O)[C@H]1O[C@@H](n2cnc3c(=O)[nH]c(N)nc32)[C@H](O)[C@@H]1O (stereo partly drawn) |  | 30 to 200 µM
9 | CC(OC(=O)c1ccccc1)[C@H]1O[C@@H](n2ccc(=O)[nH]c2=O)[C@](C)(OC(=O)c2ccccc2)[C@@H]1OC(=O)c1ccccc1 (stereo partly drawn) |  | 5 to 30 µM
10 | C[C@H](O)[C@H]1O[C@@H](n2ccc(N)nc2=O)C(F)(F)[C@@H]1O |  | < 5 µM
11 | COC(=O)[C@H](C)N[P@@](=O)(Oc1ccccc1)O[C@@H](C)[C@H]1O[C@@H](n2cnc3c(N)ncnc32)[C@H](O)[C@@H]1O | < 5 µM | 
12 | C[C@H](O)[C@H]1O[C@@H](n2ccc(N)nc2=O)[C@H](F)[C@@H]1O |  | 5 to 30 µM
13 | CC(=O)Nc1ccn([C@@H]2O[C@H]([C@H](C)OC(C)=O)[C@@H](OC(C)=O)C2(F)F)c(=O)n1 |  | < 5 µM
14 | CCC(=O)O[C@@H](C)[C@H]1O[C@@H](n2ccc(N)nc2=O)C(F)(F)[C@@H]1O |  | < 5 µM
15 | CCC(=O)O[C@@H](C)[C@H]1O[C@@H](n2ccc(N)nc2=O)C(F)(F)[C@@H]1OC(=O)CC |  | < 5 µM
16 | CC(=O)O[C@@H](C)[C@H]1O[C@@H](n2ccc(N)nc2=O)C(F)(F)[C@@H]1O |  | < 5 µM
17 | CC(=O)O[C@@H](C)[C@H]1O[C@@H](n2ccc(N)nc2=O)C(F)(F)[C@@H]1OC(C)=O |  | < 5 µM
18 | COC(=O)[C@H](C)N[P@](=O)(Oc1ccccc1)O[C@@H](C)[C@H]1O[C@@H](n2cnc3c(N)ncnc32)[C@H](O)[C@@H]1O | < 5 µM | 
19 | C[C@@H](O)[C@H]1O[C@@H](n2ccc(N)nc2=O)[C@@H](O)[C@@H]1O |  | < 5 µM
20 | COC(=O)[C@H](C)NP(=O)(Oc1ccccc1)O[C@@H](C)[C@H]1O[C@@H](n2ccc(N)nc2=O)C(F)(F)[C@@H]1O (mixture of isomers) [C5, 2′-Deoxy-2′,2′-difluoro-5′(S)—C-methylcytidine 5′-[phenyl(methoxy-L-alaninyl)]phosphate] | < 1 µM | 
21 | COC(=O)[C@H](C)NP(=O)(Oc1ccccc1)OC(C)[C@H]1O[C@@H](n2ccc(N)nc2=O)[C@@H](F)[C@@H]1O (mixture of isomers) [C9, 2′-deoxy-2′-C-β-fluoro-5′(R/S)—C-methylcytidine-5′-[phenyl-(methoxy-L-alaninyl)]phosphate] | < 100 µM | 

Row | Structure (SMILES) | EC50 (Huh-7, 72 h) | EC50 [1]
22 | CC(C)OC(=O)[C@H](C)NP(=O)(Oc1cccc2ccccc12)OC(C)[C@H]1O[C@@H](n2ccc(N)nc2=O)[C@@H](C)[C@@H]1O (mixture of isomers) [C10, 2′-deoxy-2′-C-β-methyl-5′(R/S)—C-methylcytidine 5′-[1-naphthyl (isopropoxy-L-alaninyl)]phosphate] | < 30 µM | 
23 | COC(=O)C(C)NP(=O)(Oc1ccccc1)OC(C)[C@H]1O[C@@H](n2ccc(=O)[nH]c2=O)C(C)C1O (mixture of isomers) [D7] | < 30 µM | 
24 | C[C@H](NP(=O)(Oc1ccc(F)cc1)O[C@@H](C)[C@H]1O[C@@H](n2cnc3c(N)ncnc32)[C@H](O)[C@@H]1O)C(=O)OC1CCCCC1 (stereo in doubt) [A31] | < 1 µM | 
25 | C[C@H](NP(=O)(Oc1cccc2ncccc12)O[C@@H](C)[C@H]1O[C@@H](n2cnc3c(N)ncnc32)[C@H](O)[C@@H]1O)C(=O)OC1CCCCC1 (stereo in doubt) [A35] | < 30 µM | 
26 | CC(C)OC(=O)[C@H](C)N[P@](=O)(Oc1cccc2ccccc12)O[C@@H](C)[C@H]1O[C@@H](n2cnc3c(=O)[nH]cnc32)[C@H](O)[C@@H]1O (stereo in doubt) [B5, 5′(S)—C-methylinosine 5′-[1-naphthyl(isopropoxy-L-alaninyl)]phosphate] | < 100 µM | 
27 | COC(=O)C(C)NP(=O)(Oc1ccccc1)OC(C)[C@H]1O[C@@H](n2ccc(=O)[nH]c2=O)C(F)(F)C1O (stereo in doubt) [D4, 2′-Deoxy-2′,2′-difluoro-5′(S)—C-methyluridine 5′-[phenyl(methoxy-L-alaninyl)]phosphate] | < 30 µM | 
28 | C[C@H](NP(=O)(Oc1cccc2ccccc12)O[C@@H](C)[C@H]1O[C@@H](n2cnc3c(N)ncnc32)[C@H](O)[C@@H]1O)C(=O)OC1CCCCC1 (stereo partly drawn) [A1, 5′(S)—C-methyladenosine 5′-[1-naphthyl(cyclohexoxy-L-alaninyl)]phosphate] | < 1 µM | 
29 | C[C@H](NP(=O)(Oc1cccc2ccccc12)O[C@@H](C)[C@H]1O[C@@H](n2cnc3c(N)ncnc32)[C@H](O)[C@@H]1O)C(=O)OCC(C)(C)C (stereo partly drawn) [A2, 5′(S)—C-methyladenosine 5′-[1-naphthyl(neopentoxy-L-alaninyl)]phosphate] | < 1 µM | 
30 | C[C@H](NP(=O)(Oc1cccc2ccccc12)O[C@@H](C)[C@H]1O[C@@H](n2cnc3c(N)ncnc32)[C@@H]2OC(=O)O[C@@H]21)C(=O)OC1CCCCC1 (stereo partly drawn) [A3, 2′,3′-O-carbonyl-5′(S)—C-methyladenosine 5′-[1-naphthyl(cyclohexoxy-L-alaninyl)]phosphate] | < 1 µM | 
31 | C[C@H](NP(=O)(Oc1cccc2ccccc12)O[C@@H](C)[C@H]1O[C@@H](n2cnc3c(N)ncnc32)[C@@H]2OC(=O)O[C@@H]21)C(=O)OCC(C)(C)C (stereo partly drawn) [A4, 2′,3′-O-carbonyl-5′(S)—C-methyladenosine 5′-[1-naphthyl(neopentoxy-L-alaninyl)]phosphate] | < 1 µM | 
32 | COC(=O)Nc1ncnc2c1ncn2[C@@H]1O[C@H]([C@H](C)OP(=O)(N[C@@H](C)C(=O)OC2CCCCC2)Oc2cccc3ccccc23)[C@H]2OC(=O)O[C@H]21 (stereo partly drawn) [A5, 2′,3′-O-carbonyl-N6-methoxycarbonyl-5′(S)—C-methyladenosine 5′-[1-naphthyl(cyclohexoxy-L-alaninyl)]phosphate] | < 30 µM | 
33 | COC(=O)Nc1ncnc2c1ncn2[C@@H]1O[C@H]([C@H](C)OP(=O)(N[C@@H](C)C(=O)OC2CCCCC2)Oc2cccc3ccccc23)[C@@H](O)[C@H]1O (stereo partly drawn) [A6, N6-methoxycarbonyl-5′(S)—C-methyladenosine 5′-[1-naphthyl(cyclohexoxy-L-alaninyl)]phosphate] | < 30 µM | 
34 | COC(=O)Nc1ncnc2c1ncn2[C@@H]1O[C@H]([C@H](C)OP(=O)(N[C@@H](C)C(=O)OCC(C)(C)C)Oc2cccc3ccccc23)[C@H]2OC(=O)O[C@H]21 (stereo partly drawn) [A7, 2′,3′-O-carbonyl-N6-methoxycarbonyl-5′(S)—C-methyladenosine 5′-[1-naphthyl(neopentoxy-L-alaninyl)]phosphate] | < 30 µM | 
35 | CC(C)OC(=O)[C@H](C)NP(=O)(Oc1ccccc1)O[C@@H](C)[C@H]1O[C@@H](n2cnc3c(N)ncnc32)[C@H](O)[C@@H]1O (stereo partly drawn) [A8, 5′(S)—C-methyladenosine 5′-[phenyl(isopropoxy-L-alaninyl)]phosphate] | < 1 µM | 
36 | CC(C)OC(=O)[C@H](C)NP(=O)(Oc1ccccc1)O[C@@H](C)[C@H]1O[C@@H](n2cnc3c(N)ncnc32)[C@@H]2OC(=O)O[C@@H]21 (stereo partly drawn) [A9, 2′,3′-carbonyl-5′(S)—C-methyladenosine 5′-[phenyl(isopropoxy-L-alaninyl)]phosphate] | < 1 µM | 
37 | C[C@H](NP(=O)(Oc1ccccc1)O[C@@H](C)[C@H]1O[C@@H](n2cnc3c(N)ncnc32)[C@H](O)[C@@H]1O)C(=O)OC1CCCCC1 (stereo partly drawn) [A10, 5′(S)—C-methyladenosine 5′-[phenyl(cyclohexoxy-L-alaninyl)]phosphate] | < 1 µM | 
38 | C[C@H](N[P@@](=O)(Oc1ccccc1)O[C@@H](C)[C@H]1O[C@@H](n2cnc3c(N)ncnc32)[C@H](O)[C@@H]1O)C(=O)OC1CCCCC1 [A10a, 5′(S)—C-methyladenosine 5′(S)-[phenyl(cyclohexoxy-L-alaninyl)]phosphate] | < 1 µM | 
39 | C[C@H](N[P@](=O)(Oc1ccccc1)O[C@@H](C)[C@H]1O[C@@H](n2cnc3c(N)ncnc32)[C@H](O)[C@@H]1O)C(=O)OC1CCCCC1 [A10b, 5′(S)—C-methyladenosine 5′(R)-[phenyl(cyclohexoxy-L-alaninyl)]phosphate] | < 1 µM | 
40 | C[C@H](NP(=O)(Oc1ccccc1)O[C@@H](C)[C@H]1O[C@@H](n2cnc3c(N)ncnc32)[C@H](O)[C@@H]1O)C(=O)OCC(C)(C)C (stereo partly drawn) [A11, 5′(S)—C-methyladenosine 5′-[phenyl(neopentoxy-L-alaninyl)]phosphate] | < 1 µM | 
41 | C[C@H](NP(=O)(Oc1ccccc1)O[C@@H](C)[C@H]1O[C@@H](n2cnc3c(N)ncnc32)[C@@H]2OC(=O)O[C@@H]21)C(=O)OCC(C)(C)C (stereo partly drawn) [A12, 2′,3′-O-carbonyl-5′(S)—C-methyladenosine 5′-[phenyl(neopentoxy-L-alaninyl)]phosphate] | < 1 µM | 
42 | C[C@H](NP(=O)(Oc1ccccc1)O[C@@H](C)[C@H]1O[C@@H](n2cnc3c(N)ncnc32)[C@@H]2OC(=O)O[C@@H]21)C(=O)OC1CCCCC1 (stereo partly drawn) [A13, 2′,3′-O-carbonyl-5′(S)—C-methyladenosine 5′-[phenyl(cyclohexoxy-L-alaninyl)]phosphate] | < 1 µM | 

— patent US20120070411A1, “SUBSTITUTED NUCLEOTIDE ANALOGS” (Alios BioPharma, Inc., priority 2010, published 2012)
